In general, MIC50 refers to the lowest concentration that inhibits either 50% of growth or 50% of the strains tested, depending on the study. A high value points to lower susceptibility. The MIC90 is the lowest concentration that inhibits either 90% of growth or 90% of the strains tested, depending on the study. A higher MIC90 goes with lower susceptibility. As usually defined, the MIC is the smallest concentration in the dilution series that meets the test's criterion for growth inhibition. A higher MIC goes with a need for much substance.

For 4 compounds, MIC50, MIC90 and MIC results are on record in ChEMBL document CHEMBL1255353, “Antistreptococcal activity of AR-709 compared to that of other agents” (2008).

In brackets after ≈: the same amount, converted by molar mass. Where only a bound is given, the exact number is not on record here.

Assay type in all cases: functional
Assay [1] deals with Streptococcus pneumoniae. Briefly: Antimicrobial activity against penicillin-intermediate Streptococcus pneumoniae by agar dilution method.
The subject of assay [2] is Streptococcus sp. 'group A'. Briefly: Antimicrobial activity against macrolide-resistant Streptococcus sp. 'group A' by agar dilution method. On the technique in general: Agar dilution tests growth on a series of plates holding different concentrations.
Assay [3] has as its system Streptococcus pneumoniae. Briefly: Antimicrobial activity against penicillin-resistant Streptococcus pneumoniae by agar dilution method.
Assay [4] relates to Streptococcus sp. 'group A'. The assay is described as follows: Antimicrobial activity against macrolide-susceptible Streptococcus sp. 'group A' by agar dilution method.
Assay [5] concerns Streptococcus pneumoniae. Briefly: Antimicrobial activity against macrolide-resistant Streptococcus pneumoniae by agar dilution method.
Assay [6] relates to Streptococcus pneumoniae. Briefly: Antimicrobial activity against macrolide-susceptible Streptococcus pneumoniae by agar dilution method.
Assay [7] relates to Streptococcus pneumoniae. The assay is described as follows: Antimicrobial activity against quinolone-susceptible Streptococcus pneumoniae by agar dilution method.
Assay [8] concerns Streptococcus pneumoniae. Briefly: Antimicrobial activity against trimethoprim-sulfamethoxazole-resistant Streptococcus pneumoniae by agar dilution method.
The subject of assay [9] is Streptococcus pneumoniae. The assay is described as follows: Antimicrobial activity against quinolone-resistant Streptococcus pneumoniae by agar dilution method.
Assay [10] relates to Streptococcus pneumoniae. Briefly: Antimicrobial activity against trimethoprim-sulfamethoxazole-susceptible Streptococcus pneumoniae by agar dilution method.
For assay [11], the system named is Streptococcus pneumoniae. Briefly: Antimicrobial activity against penicillin-susceptible Streptococcus pneumoniae by agar dilution method.

On to `CO/N=C(\C(=O)N[C@@H]1C(=O)N2C(C(=O)O)=C(COC(N)=O)CS[C@H]12)c1ccco1` [CEFUROXIME], for which the MIC50 worked out at 0.25 µg/mL (≈ 0.589 µM) in assay [1]; 0.016 µg/mL (≈ 0.0377 µM) in assay [2]; 4 µg/mL (≈ 9.43 µM) in [3]; 0.016 µg/mL (≈ 0.0377 µM) in [4]; 0.5 µg/mL (≈ 1.18 µM) in assay [5]; 0.25 µg/mL (≈ 0.589 µM) in assay [6]. Also, the MIC50 in assay [7] stood at 0.25 µg/mL (≈ 0.589 µM); in assay [8] it was 2 µg/mL (≈ 4.71 µM); in assay [9], 2 µg/mL (≈ 4.71 µM); in [10], 0.03 µg/mL (≈ 0.0707 µM); in [11], 0.03 µg/mL (≈ 0.0707 µM). In addition, the MIC90 turned out to be 4 µg/mL (≈ 9.43 µM) in assay [1]; 0.03 µg/mL (≈ 0.0707 µM) in assay [2]; 16 µg/mL (≈ 37.7 µM) in assay [3]; 0.016 µg/mL (≈ 0.0377 µM) in assay [4]; 8 µg/mL (≈ 18.9 µM) in assay [5]; 4 µg/mL (≈ 9.43 µM) in assay [6]. In addition, the MIC90 in assay [7] was determined as 4 µg/mL (≈ 9.43 µM); in assay [8], 8 µg/mL (≈ 18.9 µM); in [9], 8 µg/mL (≈ 18.9 µM); in [10] it was 0.5 µg/mL (≈ 1.18 µM); in assay [11], 0.12 µg/mL (≈ 0.283 µM). Besides, the MIC in assay [2] and in assay [4] was 0.016 µg/mL (≈ 0.0377 µM) in each case.
Consider `O=C(O)c1cn(C2CC2)c2cc(N3CCNCC3)c(F)cc2c1=O` [CIPROFLOXACIN], for which the MIC50 in assay [1] came to 1 µg/mL (≈ 3.02 µM); in [2] it was 0.5 µg/mL (≈ 1.51 µM); in assay [4], 0.5 µg/mL (≈ 1.51 µM); in assay [5], 1 µg/mL (≈ 3.02 µM); in assay [7], 1 µg/mL (≈ 3.02 µM); in assay [8], 1 µg/mL (≈ 3.02 µM). In addition, in assay [9], the MIC50 was found to be 32 µg/mL (≈ 96.6 µM). Besides, the MIC90 in assay [1] was determined as 4 µg/mL (≈ 12.1 µM); in [2], 2 µg/mL (≈ 6.04 µM); in assay [4] it was 1 µg/mL (≈ 3.02 µM); in [5], 4 µg/mL (≈ 12.1 µM); in [7], 2 µg/mL (≈ 6.04 µM); in [8], 4 µg/mL (≈ 12.1 µM). The compound also displayed an MIC90 in [9] of more than 32 µg/mL. For the same compound, the minimum inhibitory concentration (MIC) in [4] is 0.5 µg/mL (≈ 1.51 µM).
For `C[C@H]1COc2c(N3CCN(C)CC3)c(F)cc3c(=O)c(C(=O)O)cn1c23.C[C@H]1COc2c(N3CCN(C)CC3)c(F)cc3c(=O)c(C(=O)O)cn1c23.O` [LEVOFLOXACIN], the MIC50 in [1] worked out at 1 µg/mL; in [2], 0.5 µg/mL; in assay [3], 1 µg/mL; in [4], 0.5 µg/mL; in [5], 1 µg/mL; in [6], 1 µg/mL. The MIC50 in [7] was 1 µg/mL; in assay [8], 1 µg/mL; in assay [9] it was 16 µg/mL; in assay [10], 1 µg/mL; in [11] it was 1 µg/mL. Besides, the MIC90 in assay [1] is 2 µg/mL; in assay [2] it was 1 µg/mL; in assay [3] it was 4 µg/mL; in [4], 2 µg/mL; in [5], 2 µg/mL; in assay [6], 8 µg/mL. The MIC90 was 1 µg/mL in assay [7]; 2 µg/mL in assay [8]; 16 µg/mL in [9]; 2 µg/mL in assay [10]; 8 µg/mL in [11]. The compound also displayed an MIC in [4] of 0.5 µg/mL.
`CC1(C)S[C@@H]2[C@H](NC(=O)Cc3ccccc3)C(=O)N2[C@H]1C(=O)O` [PENICILLIN G]: the MIC50 in assay [1] was 0.25 µg/mL (≈ 0.748 µM); in assay [3], 2 µg/mL (≈ 5.98 µM); in assay [5] it was 0.25 µg/mL (≈ 0.748 µM); in assay [6], 0.12 µg/mL (≈ 0.359 µM); in [7], 0.12 µg/mL (≈ 0.359 µM); in assay [8] it was 1 µg/mL (≈ 2.99 µM). Moreover, the MIC50 came out at 0.5 µg/mL (≈ 1.5 µM) in [9], 0.03 µg/mL (≈ 0.0897 µM) in [10] and 0.016 µg/mL (≈ 0.0478 µM) in assay [11]. The MIC90 in [1] turned out to be 1 µg/mL (≈ 2.99 µM); in [3], 4 µg/mL (≈ 12 µM); in [5], 4 µg/mL (≈ 12 µM); in [6], 2 µg/mL (≈ 5.98 µM); in [7] it was 2 µg/mL (≈ 5.98 µM); in assay [8], 4 µg/mL (≈ 12 µM). For the same compound, the MIC90 in assay [9] worked out at 2 µg/mL (≈ 5.98 µM); in assay [10], 0.25 µg/mL (≈ 0.748 µM); in assay [11], 0.06 µg/mL (≈ 0.179 µM). In addition, the MIC in assay [3] came out at 2 µg/mL (≈ 5.98 µM); in assay [7], 0.12 µg/mL (≈ 0.359 µM).
